# From ChEMBL document CHEMBL1201862, “PubChem BioAssay data set” (2004)
#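 Results reflect a 48-hour exposure of cells in 96-well plates to compound at five concentrations. Abbreviation: GI50, concentration required for 50% inhibition of growth.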 Activity calls are given as the source filed them. Cut-off read from the data, not from the text of the source: active = GI50 up to about 1.1 µM and inactive = higher.
# Experiments:
# Assay in all cases: NCI-60 cell line screen, 48 h
# BT-549 = tested on: BT-549
# T47D = tested on: T47D
# UACC-257 = tested on: UACC-257
# SF-295 = tested on: SF-295
# KM12 = tested on: KM12
# HT-29 = tested on: HT-29
# MDA-MB-435 = tested on: MDA-MB-435
# SF-268 = tested on: SF-268
# CCRF-CEM = tested on: CCRF-CEM
# HOP-62 = tested on: HOP-62
# SK-MEL-28 = tested on: SK-MEL-28
# SNB-75 = tested on: SNB-75
# MDA-N = tested on: MDA-N
# COLO 205 = tested on: COLO 205
# PC-3 = tested on: PC-3
# IGROV-1 = tested on: IGROV-1
# TK-10 = tested on: TK-10
# NCI-H23 = tested on: NCI-H23
# NCI-H460 = tested on: NCI-H460
# SR = tested on: SR
SMILES,GI50 (BT-549),GI50 (T47D),GI50 (UACC-257),GI50 (SF-295),GI50 (KM12),GI50 (HT-29),GI50 (MDA-MB-435),GI50 (SF-268),GI50 (CCRF-CEM),GI50 (HOP-62),GI50 (SK-MEL-28),GI50 (SNB-75),GI50 (MDA-N),GI50 (COLO 205),GI50 (PC-3),GI50 (IGROV-1),GI50 (TK-10),GI50 (NCI-H23),GI50 (NCI-H460),GI50 (SR)
NNS(=O)(=O)c1ccc(/C=C2\NC(=O)NC2=O)cc1,> 100 µM (inactive),> 100 µM (inactive),> 100 µM (inactive),> 100 µM (inactive),> 100 µM (inactive),> 100 µM (inactive),> 100 µM (inactive),> 100 µM (inactive),> 100 µM (inactive),> 100 µM (inactive),> 100 µM (inactive),> 100 µM (inactive),> 100 µM (inactive),> 100 µM (inactive),> 100 µM (inactive),> 100 µM (inactive),> 100 µM (inactive),> 100 µM (inactive),,
COc1c(-c2nc3ccc(N4CCN(C)CC4)nc3[nH]2)cc(OC)c2c1nc(COC(C)=O)n2C,> 100 µM (inactive),> 100 µM (inactive),45.3 µM (inactive),> 100 µM (inactive),39.4 µM (inactive),56.1 µM (inactive),71.8 µM (inactive),> 100 µM (inactive),,> 100 µM (inactive),,,> 100 µM (inactive),92.7 µM (inactive),94.8 µM (inactive),> 100 µM (inactive),< 0.01 µM (active),> 100 µM (inactive),,
C[C@H](C1CC2(C)OC2(C)C(=O)O1)[C@H]1CC[C@H]2[C@@H]3[C@@H]4O[C@@H]4[C@@]4(O)CC=CC(=O)[C@]4(C)[C@H]3CC[C@]12C (stereo partly specified),> 50 µM (inactive),24.9 µM (inactive),> 50 µM (inactive),> 50 µM (inactive),> 50 µM (inactive),> 50 µM (inactive),> 50 µM (inactive),> 50 µM (inactive),,37.8 µM (inactive),> 50 µM (inactive),8.18 µM (inactive),> 50 µM (inactive),> 50 µM (inactive),> 50 µM (inactive),> 50 µM (inactive),> 50 µM (inactive),> 50 µM (inactive),> 50 µM (inactive),
CC(C)C(=O)CC(Sc1ccc(N)cc1)c1ccccc1 (stereo unspecified),33.7 µM (inactive),21.9 µM (inactive),33.6 µM (inactive),25.6 µM (inactive),22.5 µM (inactive),27.5 µM (inactive),13.6 µM (inactive),28.5 µM (inactive),17.1 µM (inactive),37.1 µM (inactive),30.8 µM (inactive),32.6 µM (inactive),16 µM (inactive),33.2 µM (inactive),35.4 µM (inactive),44.1 µM (inactive),69.8 µM (inactive),21.9 µM (inactive),23.2 µM (inactive),
O=C1CCCc2cc3c(cc21)CCC3C(=O)O (stereo unspecified),> 100 µM (inactive),> 100 µM (inactive),> 100 µM (inactive),> 100 µM (inactive),> 100 µM (inactive),> 100 µM (inactive),,> 100 µM (inactive),> 100 µM (inactive),> 100 µM (inactive),> 100 µM (inactive),> 100 µM (inactive),> 100 µM (inactive),> 100 µM (inactive),> 100 µM (inactive),> 100 µM (inactive),> 100 µM (inactive),> 100 µM (inactive),> 100 µM (inactive),> 100 µM (inactive)
Cc1ccc(/N=C2/S/C(=C3/CCC=C3N3CCOCC3)N(c3ccc(Cl)cc3)/C2=N/c2ccc(C)cc2)cc1,> 100 µM (inactive),> 100 µM (inactive),> 100 µM (inactive),,> 100 µM (inactive),> 100 µM (inactive),,,,> 100 µM (inactive),> 100 µM (inactive),> 100 µM (inactive),> 100 µM (inactive),> 100 µM (inactive),> 100 µM (inactive),> 100 µM (inactive),> 100 µM (inactive),> 100 µM (inactive),> 100 µM (inactive),> 100 µM (inactive)
COc1cc2oc(-c3ccc(O)cc3)cc(=O)c2c(OC)c1O,67.9 µM (inactive),6.41 µM (inactive),> 100 µM (inactive),62.5 µM (inactive),,> 100 µM (inactive),> 100 µM (inactive),37.8 µM (inactive),> 100 µM (inactive),29.2 µM (inactive),> 100 µM (inactive),14.5 µM (inactive),> 100 µM (inactive),> 100 µM (inactive),,57.3 µM (inactive),51.4 µM (inactive),> 100 µM (inactive),45.7 µM (inactive),
Cc1ccc(S(=O)(=O)Nn2c(O)c(C#N)c(-c3ccc(N(C)C)cc3)c(C#N)c2=O)cc1,> 50 µM (inactive),,> 50 µM (inactive),0.023 µM (active),> 50 µM (inactive),> 50 µM (inactive),> 50 µM (inactive),> 50 µM (inactive),> 50 µM (inactive),> 50 µM (inactive),> 50 µM (inactive),> 50 µM (inactive),> 50 µM (inactive),> 50 µM (inactive),> 50 µM (inactive),> 50 µM (inactive),> 50 µM (inactive),,> 50 µM (inactive),
CC(=O)NC1C(OCC(=O)NC(C)C(=O)NC(CCC(=O)NCCCCCNc2ccc([N+](=O)[O-])c3[nH]c4ccccc4c(=O)c23)C(N)=O)C(O)C(CO)OC1(C)OCc1ccccc1 (stereo unspecified),> 50 µM (inactive),> 50 µM (inactive),> 50 µM (inactive),45.4 µM (inactive),> 50 µM (inactive),38.6 µM (inactive),> 50 µM (inactive),14.5 µM (inactive),3.75 µM (inactive),14.8 µM (inactive),,24.8 µM (inactive),> 50 µM (inactive),> 50 µM (inactive),> 50 µM (inactive),> 50 µM (inactive),24 µM (inactive),> 50 µM (inactive),18.4 µM (inactive),
CC1CNC(c2ccc(CN3CCC(C4CCN(Cc5ccc(C6=NC(C)CN6)cc5)CC4)CC3)cc2)=N1 (stereo unspecified),> 100 µM (inactive),19.5 µM (inactive),24.2 µM (inactive),17 µM (inactive),15.7 µM (inactive),18.5 µM (inactive),20.8 µM (inactive),22.4 µM (inactive),13.9 µM (inactive),14.9 µM (inactive),32.6 µM (inactive),16.6 µM (inactive),21.3 µM (inactive),18.6 µM (inactive),17.7 µM (inactive),37.2 µM (inactive),22.4 µM (inactive),28 µM (inactive),18.5 µM (inactive),
CC[C@]1(Cc2ccc(OC)c(OC)c2)[C@@H]2C[C@@H](C(=O)OC)ON2O[C@H](OC2CCCC2(c2ccccc2)c2ccccc2)[C@@H]1OC(C)=O (stereo partly specified),> 100 µM (inactive),> 100 µM (inactive),> 100 µM (inactive),> 100 µM (inactive),> 100 µM (inactive),> 100 µM (inactive),> 100 µM (inactive),> 100 µM (inactive),> 100 µM (inactive),> 100 µM (inactive),> 100 µM (inactive),> 100 µM (inactive),,> 100 µM (inactive),,> 100 µM (inactive),> 100 µM (inactive),> 100 µM (inactive),> 100 µM (inactive),66.7 µM (inactive)
O=C(O)C1=CN(c2ccncc2)C(c2ccco2)=CC1c1ccccc1[N+](=O)[O-] (stereo unspecified),12.1 µM (inactive),10.6 µM (inactive),2.31 µM (inactive),12.8 µM (inactive),1.75 µM (inactive),2.13 µM (inactive),15.1 µM (inactive),5.71 µM (inactive),2.69 µM (inactive),13.8 µM (inactive),12.8 µM (inactive),7.36 µM (inactive),,16.6 µM (inactive),13.9 µM (inactive),2 µM (inactive),6.17 µM (inactive),14.5 µM (inactive),14.6 µM (inactive),1.94 µM (inactive)
Cc1ccsc1C(=S)Nc1ccc(Cl)c(C(=O)OC(C(C)C)C(C)C)c1,3.38 µM (inactive),6.9 µM (inactive),28.4 µM (inactive),21.9 µM (inactive),20 µM (inactive),17.4 µM (inactive),17.7 µM (inactive),40.8 µM (inactive),5.62 µM (inactive),,27.1 µM (inactive),24 µM (inactive),23.6 µM (inactive),12.9 µM (inactive),8.53 µM (inactive),32.3 µM (inactive),38.1 µM (inactive),13.5 µM (inactive),23.7 µM (inactive),
CCCC(=O)N(C)/N=N/c1ccc(C(=O)OCC)cc1,> 100 µM (inactive),63.4 µM (inactive),> 100 µM (inactive),> 100 µM (inactive),> 100 µM (inactive),> 100 µM (inactive),,> 100 µM (inactive),> 100 µM (inactive),> 100 µM (inactive),> 100 µM (inactive),37.9 µM (inactive),> 100 µM (inactive),,> 100 µM (inactive),> 100 µM (inactive),> 100 µM (inactive),> 100 µM (inactive),22.6 µM (inactive),> 100 µM (inactive)
CN(C)CCCN1c2ccccc2CCc2cc([N+](=O)[O-])ccc21,22.4 µM (inactive),18.7 µM (inactive),20.1 µM (inactive),18.9 µM (inactive),26.4 µM (inactive),21.4 µM (inactive),21.6 µM (inactive),20 µM (inactive),,21.8 µM (inactive),,,19.6 µM (inactive),21 µM (inactive),25.4 µM (inactive),20.3 µM (inactive),28.5 µM (inactive),26.5 µM (inactive),20 µM (inactive),32.1 µM (inactive)
